Measurements reported in patent US20240300923A1, “IRAK4 Inhibitors” (ASTRAZENECA AB, priority 2022, published 2024).

Legend:
IRAK4 [1] = molecular target: T1, IRAK4 (Homo sapiens (Human), UniProt Q9NWZ3); test: IRAK4 enzyme assay (mass spectrometry readout); assay type: biochemical; conditions: human recombinant IRAK4 0.2 nM, 3 mM ATP; geometric mean of at least 2 experiments
Method: Potency of IRAK4 Inhibitor Compounds in IRAK4 Enzyme Assay
The inhibitory activity of compounds against IRAK4 were determined in an enzymatic assay using mass spectrometry readout. Ten point half-log compound concentration response curves, with a top concentration of 1 μM or 10 μM, were generated from 10 mM stocks of compound solubilized in DMSO using an Echo 655 (Labcyte Inc) and added to 384 well assay plates (Greiner #781280). To the assay plates, 10 μL of human recombinant IRAK4 protein (Life Technologies #PV4002) diluted to a final concentration of 0.2 nM in assay buffer (50 mM Tris-HCl pH 7.4, 10 mM MgCl, 5 mM glutathione, 0.01% BSA, 3 mM ATP) was added. The enzyme was incubated with the compounds at room temperature for 15 minutes before a peptide substrate ([…], Innovagen custom synthesis, 10 mM in DMSO) was added to each well to a final concentration of 10 μM using an Echo 655 (Labcyte Inc). After two hours at room temperature, the reaction was stopped with 65 μL of 0.4% formic acid (Merck #33015). The unphosphorylated and phosphorylated peptide were measured by LC-MS/MS on a Waters TQ-S mass spectrometer. Peaks were integrated using the TargetLynx software and the ratios between phosphorylated and unphosphorylated peptides were calculated. Curves were fitted and compound potencies determined in Genedata Screener 19 (Genedata AG). IC50 values are the geometric mean of at least 2 experiments.

IRAK4 [2] = molecular target: T1, IRAK4; test: IRAK4 phosphorylation cell assay (IL-1β-stimulated Karpas-299 cells); assay type: cell-based; conditions: IRAK4 auto-phosphorylation (pIRAK4 Thr345/Ser346) in IL-1β-stimulated Karpas-299 cells; geometric mean of at least 2 experiments
Method: IRAK4 Phosphorylation Cell Assay
The activation of IRAK4 by TLR or IL-1R ligands leads to IRAK4 auto-phosphorylation, which can be prevented by IRAK4 kinase inhibitors. The effect of IRAK4 inhibitor compounds on IRAK4 auto-phosphorylation was assessed in IL-1β-stimulated Karpas-299 cells as a measurement of cellular potency. Karpas-299 cells were cultured in RPMI 1640 (Gibco 61870-010) containing 10% FBS (Gibco #10270). Cells were plated at 2×10^4 cells per well in poly-D-lysine coated 384 well plates (Corning #356663) to which compounds had been added at various concentrations (10 point half log dose response with a final top concentration of 30 μM) using an Echo 655 (Labcyte Inc). Cells were centrifuged (250 g, 4 mins), incubated at 37° C. for 1 h, then stimulated with 22.7 ng/mL recombinant IL-1β (R&D Systems, #201-LB-025) at 37° C. for 10 mins, followed by fixation in 4% paraformaldehyde for 20 mins and permeabilization in ice-cold 70% MeOH in PBS for 30 mins. Cells were washed twice with phosphate-buffered saline (PBS) on a BlueWasher (BlueCatBio) then blocked with PBS containing 10% FBS for 20 mins. Blocking solution was removed with a BlueWasher and cells were stained with anti-pIRAK4 (Thr345/Ser346) (CST, #11927, 1:400) in blocking buffer with 0.05% Tween-20 for 1 h, then washed twice with PBS containing 0.05% Tween-20 on a BlueWasher, followed by staining with a Alexa 647-conjugated secondary anti-rabbit IgG antibody (CST, #4414, 1:2,000) and Hoechst 33342 (Sigma, 1:2,000) in blocking buffer with 0.05% Tween-20 for 30 mins. Finally, the cells were washed twice with PBS containing 0.05% Tween-20 and imaged on an ImageXpress Micro (Molecular Devices) with a 10× air objective using the appropriate filters. Images were analysed in Columbus (PerkinElmer) and the fluorescence intensity per cell from the secondary antibody was quantified. The quantified data were analysed in Genedata Screener 19 (Genedata AG). […] IC50 values are the geometric mean of at least 2 experiments.

human cKit kinase = human cKit kinase (Homo sapiens (Human), UniProt P10721); test: cKit enzyme assay (LANCE, Eurofins CEREP); assay type: biochemical; conditions: human recombinant enzyme, 50 μM ATP; geometric mean of at least n=2, * = single experiment
Method: Potency of IRAK4 Inhibitor Compounds in cKit Enzyme Assay
Evaluation of the effects of the IRAK4 inhibitor compounds on the activity of the human cKit kinase quantified by measuring the phosphorylation of the substrate Ulight-TK peptide using a human recombinant enzyme and the LANCE® detection method at Eurofins CEREP, catalog item 3070, SOP no 1C768: The test compound, reference compound or water (control) are mixed with the enzyme (0.38 ng) in a buffer containing 40 mM Hepes/Tris (pH 7.4), 0.8 mM EGTA/Tris, 8 mM MgCl2, 1.6 mM DTT and 0.008% Tween 20. Thereafter, the reaction is initiated by adding 100 nM of the substrate Ulight-TK peptide and 50 μM ATP, and the mixture is incubated for 30 min at room temperature. For control basal measurements, the enzyme is omitted from the reaction mixture. Following incubation, the reaction is stopped by adding 13 mM EDTA. After 5 min, the anti-phopho-PT66 antibody labeled with europium chelate is added. After 60 more min, the fluorescence transfer is measured at lex=337 nm, lem=620 nm and lem=665 nm using a microplate reader (Envision, Perkin Elmer). The enzyme activity is determined by dividing the signal measured at 665 nm by that measured at 620 nm (ratio). The results are expressed as a percent inhibition of the control enzyme activity. The standard inhibitory reference compound is staurosporine, which is tested in each experiment at several concentrations to obtain an inhibition curve from which its IC50 value is calculated.
Data presented are the geometric mean of at least n=2, or as denoted by an*are obtained from a single experiment. […] Kinase selectivity can be a key determinant of clinical utility as off target toxicity can be reduced or eliminated.

T1 sequence (Q9NWZ3 whole entry): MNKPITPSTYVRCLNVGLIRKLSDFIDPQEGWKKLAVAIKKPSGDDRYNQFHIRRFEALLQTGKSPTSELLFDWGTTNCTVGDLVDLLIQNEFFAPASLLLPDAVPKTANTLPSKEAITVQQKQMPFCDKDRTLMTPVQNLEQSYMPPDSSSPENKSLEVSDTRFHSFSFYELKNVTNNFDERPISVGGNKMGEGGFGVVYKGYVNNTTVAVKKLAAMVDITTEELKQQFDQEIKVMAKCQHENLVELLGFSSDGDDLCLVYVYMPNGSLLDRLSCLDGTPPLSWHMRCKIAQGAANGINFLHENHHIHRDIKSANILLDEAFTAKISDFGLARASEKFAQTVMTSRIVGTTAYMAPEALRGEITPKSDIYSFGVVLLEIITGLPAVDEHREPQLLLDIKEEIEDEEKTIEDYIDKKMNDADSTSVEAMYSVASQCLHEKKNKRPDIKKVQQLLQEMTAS
Chain of human cKit kinase (P10721 26-976): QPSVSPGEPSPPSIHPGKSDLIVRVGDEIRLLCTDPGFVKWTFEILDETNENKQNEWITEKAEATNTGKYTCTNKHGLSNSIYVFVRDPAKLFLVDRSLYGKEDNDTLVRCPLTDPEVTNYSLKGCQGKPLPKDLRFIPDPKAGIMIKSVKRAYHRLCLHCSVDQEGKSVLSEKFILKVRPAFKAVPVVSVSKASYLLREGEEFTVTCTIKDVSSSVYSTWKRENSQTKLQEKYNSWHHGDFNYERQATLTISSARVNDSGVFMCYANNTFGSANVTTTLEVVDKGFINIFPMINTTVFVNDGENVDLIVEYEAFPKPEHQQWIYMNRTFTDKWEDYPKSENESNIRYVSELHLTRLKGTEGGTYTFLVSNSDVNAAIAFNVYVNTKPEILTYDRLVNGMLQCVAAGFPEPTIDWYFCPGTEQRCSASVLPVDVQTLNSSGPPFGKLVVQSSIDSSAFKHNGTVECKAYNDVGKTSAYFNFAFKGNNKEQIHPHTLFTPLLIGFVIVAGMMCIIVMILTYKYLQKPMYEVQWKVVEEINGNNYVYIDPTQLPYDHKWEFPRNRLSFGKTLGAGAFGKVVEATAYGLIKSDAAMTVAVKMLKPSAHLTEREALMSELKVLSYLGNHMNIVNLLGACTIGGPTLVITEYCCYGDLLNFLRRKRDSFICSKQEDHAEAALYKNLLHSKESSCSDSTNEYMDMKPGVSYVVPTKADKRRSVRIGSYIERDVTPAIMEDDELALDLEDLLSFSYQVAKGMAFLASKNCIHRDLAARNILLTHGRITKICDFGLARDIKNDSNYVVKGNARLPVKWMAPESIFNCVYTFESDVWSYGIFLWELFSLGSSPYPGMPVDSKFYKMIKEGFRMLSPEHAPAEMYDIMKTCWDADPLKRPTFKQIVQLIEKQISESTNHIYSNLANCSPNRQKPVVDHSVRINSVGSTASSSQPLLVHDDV

Row | Structure (SMILES) | IC50 (IRAK4 [1]) [nM] | IC50 (IRAK4 [2]) [nM] | IC50 (human cKit kinase) [nM]
1 | COc1cc2nn([C@H]3CC[C@H](N(C)C(=O)[C@@H](C)O)CC3)cc2cc1C(=O)Nc1cccn(CC#N)c1=O [Example 10, N-(1-(Cyanomethyl)-2-oxo-1,2-dihydropyridin-3-yl)-2-((1R,4r)-4-((R)-2-hydroxy-N-methylpropanamido)cyclohexyl)-6-methoxy-2H-indazole-5-carboxamide] | 1.4 | 37 | 2500
2 | COc1cc2nn([C@H]3CC[C@H](n4cncn4)CC3)cc2cc1C(=O)Nc1cccn(C)c1=O [Example 26, 2-((1r,4r)-4-(1H-1,2,4-Triazol-1-yl)cyclohexyl)-6-methoxy-N-(1-methyl-2-oxo-1,2-dihydropyridin-3-yl)-2H-indazole-5-carboxamide] | 2.2 | 38 | > 100000
3 | COc1cc2nn([C@H]3CC[C@H](N(C)C(C)=O)CC3)cc2cc1C(=O)Nc1cccn(C)c1=O [Example 1, 6-Methoxy-N-(1-methyl-2-oxo-1,2-dihydropyridin-3-yl)-2-((1r,4r)-4-(N-methylacetamido)cyclohexyl)-2H-indazole-5-carboxamide] | 1.1 | 30 | 13000
4 | COc1cc2nn([C@H]3CC[C@H](N(C)C(=O)[C@@H](C)O)CC3)cc2cc1C(=O)Nc1cccn(-c2cn(C)nn2)c1=O [Example 16, 2-((1R,4r)-4-((R)-2-Hydroxy-N-methylpropanamido)cyclohexyl)-6-methoxy-N-(1-(1-methyl-1H-1,2,3-triazol-4-yl)-2-oxo-1,2-dihydropyridin-3-yl)-2H-indazole-5-carboxamide] | 1 | 33 | 1400
5 | COc1cc2nn([C@H]3CC[C@H](c4nnco4)CC3)cc2cc1C(=O)Nc1cccn(C)c1=O [Example 25, 2-((1r,4r)-4-(1,3,4-Oxadiazol-2-yl)cyclohexyl)-6-methoxy-N-(1-methyl-2-oxo-1,2-dihydropyridin-3-yl)-2H-indazole-5-carboxamide] | 1.7 | 45 | > 100000
6 | COc1cc2nn([C@H]3CC[C@H](N(C)C(=O)[C@@H](C)O)CC3)cc2cc1C(=O)Nc1cccn(C)c1=O [Example 8, 2-((1R,4r)-4-((R)-2-Hydroxy-N-methylpropanamido)cyclohexyl)-6-methoxy-N-(1-methyl-2-oxo-1,2-dihydropyridin-3-yl)-2H-indazole-5-carboxamide] | 0.8 | 29 | 7000
7 | COc1cc2nn(C3CCC(c4cccnn4)CC3)cc2cc1C(=O)Nc1cccn(C)c1=O (single isomer, unassigned) [Example 24, 6-Methoxy-N-(1-methyl-2-oxo-1,2-dihydropyridin-3-yl)-2-(4-(pyridazin-3-yl)cyclohexyl)-2H-indazole-5-carboxamide] | 1.2 | 17 | 88100
8 | COc1cc2nn([C@H]3CC[C@H](n4cc(C(C)(C)O)nn4)CC3)cc2cc1C(=O)Nc1cccn(C)c1=O [Example 30, 2-((1r,4r)-4-(4-(2-Hydroxypropan-2-yl)-1H-1,2,3-triazol-1-yl)cyclohexyl)-6-methoxy-N-(1-methyl-2-oxo-1,2-dihydropyridin-3-yl)-2H-indazole-5-carboxamide] | 1 | 22 | 6900
9 | COc1cc2nn([C@H]3CC[C@H](N(C)C(=O)[C@@H](C)O)CC3)cc2cc1C(=O)Nc1cccn(-c2cnn(C)c2)c1=O [Example 15, 2-((1R,4r)-4-((R)-2-Hydroxy-N-methylpropanamido)cyclohexyl)-6-methoxy-N-(1-(1-methyl-1H-pyrazol-4-yl)-2-oxo-1,2-dihydropyridin-3-yl)-2H-indazole-5-carboxamide] | 0.9 | 35 | 2700
10 | COc1cc2nn([C@@H]3CC[C@@H](N(C)C(C)=O)C[C@@H]3C)cc2cc1C(=O)Nc1cccn(C)c1=O [Example 4, 6-Methoxy-N-(1-methyl-2-oxo-1,2-dihydropyridin-3-yl)-2-((1R,2S,4R)-2-methyl-4-(N-methylacetamido)cyclohexyl)-2H-indazole-5-carboxamide] | 3.9 | 67 | 18300
11 | COc1cc2nn([C@H]3CC[C@H](N(C)C(=O)[C@H](C)O)CC3)cc2cc1C(=O)Nc1cccn(C2CC2)c1=O [Example 11, N-(1-Cyclopropyl-2-oxo-1,2-dihydropyridin-3-yl)-2-((1S,4r)-4-((S)-2-hydroxy-N-methylpropanamido)cyclohexyl)-6-methoxy-2H-indazole-5-carboxamide] | 0.9 | 23 | 36300
12 | COc1cc2nn([C@H]3CC[C@H](N(C)C(C)=O)C[C@H]3C)cc2cc1C(=O)Nc1cccn(C)c1=O [Example 5, 6-Methoxy-N-(1-methyl-2-oxo-1,2-dihydropyridin-3-yl)-2-((1S,2R,4S)-2-methyl-4-(N-methylacetamido)cyclohexyl)-2H-indazole-5-carboxamide] | 0.8 | 24 | > 40000
